Test results taken from ChEMBL document CHEMBL5257038, “Active Natural Product Scaffolds against Trypanosomatid Parasites: A Review” (J Nat Prod, 2018).
Values belong to the compound of their own block, whether it stands above or below them. Positions of bridges follow the written chain, without caps; N, C: chain ends. Non-standard residues stand in square brackets, D forms with d. Residues, ends and D or L forms follow the SMILES beside them. ξ: configuration not given here. ξK = NCCCCC(N)C(=O)O

What was measured:
[1] = system: Trypanosoma brucei brucei; experiment: Antitrypanosomal activity against bloodstream form of Trypanosoma brucei brucei assessed as reduction in parasite growth; type: functional, organism-based
[2] = Selectivity index, ratio of IC50 for cytotoxicity against mouse peritoneal macrophage cells to IC50 for antitrypanosomal activity against bloodstream form of Trypanosoma brucei; type: toxicity, cell-based; details: read-out: Ratio IC50
Leishmania donovani [3] = experiment: Antileishmanial activity against Leishmania donovani promastigotes assessed as parasite growth inhibition; type: functional, organism-based
Trypanosoma brucei = experiment: Antitrypanosomal activity against bloodstream form of Trypanosoma brucei assessed as parasite growth inhibition; type: functional, organism-based
[4] = Selectivity index, ratio of IC50 for cytotoxicity against mouse peritoneal macrophage cells to IC50 for antileishmanial activity against Leishmania donovani promastigotes; type: toxicity, cell-based; details: read-out: Ratio IC50
[5] = Selectivity index, ratio of IC50 for cytotoxicity against rat L6 cells to IC50 for antitrypanosomal activity against bloodstream form of Trypanosoma brucei rhodesiense; type: toxicity, cell-based; details: read-out: Ratio IC50
[6] = system: Trypanosoma brucei rhodesiense; experiment: Antitrypanosomal activity against bloodstream form of Trypanosoma brucei rhodesiense assessed as parasite growth inhibition; type: functional, organism-based
Trypanosoma cruzi [7] = experiment: Antitrypanosomal activity against intracellular Trypanosoma cruzi amastigote assessed as reduction in parasite growth; type: functional, organism-based
Leishmania donovani [8] = experiment: Antileishmanial activity against amastigote form of Leishmania donovani assessed as parasite growth inhibition; type: functional, organism-based
Leishmania infantum [9] = experiment: Antileishmanial activity against amastigote stage of Leishmania infantum; type: functional, organism-based
Leishmania major = experiment: Antileishmanial activity against Leishmania major promastigotes assessed as parasite growth inhibition; type: functional, organism-based
[10] = system: Trypanosoma brucei brucei; experiment: Antitrypanosomal activity against Trypanosoma brucei brucei; type: functional, organism-based
[11] = Selectivity index, ratio of IC50 for cytotoxicity against human T98G cells to IC50 for antitrypanosomal activity against Trypanosoma brucei brucei; type: toxicity, cell-based; details: read-out: Ratio IC50
Trypanosoma cruzi [12] = experiment: Antitrypanosomal activity against trypomastigote form of Trypanosoma cruzi assessed as reduction in parasite growth; type: functional, organism-based
Trypanosoma cruzi [13] = experiment: Antitrypanosomal activity against epimastigote form of Trypanosoma cruzi assessed as reduction in parasite growth; type: functional, organism-based
Plasmodium berghei [14] = experiment: In vivo antimalarial activity against GFP-transfected Plasmodium berghei ANKA infected in NMRI mouse assessed as reduction of parasitaemia at 100 mg/kg/day, po for 4 days relative to control; type: functional; details: 96 h, time 4 day
Plasmodium berghei [15] = experiment: In vivo antimalarial activity against GFP-transfected Plasmodium berghei ANKA infected in NMRI mouse assessed as reduction in parasitemia at 50 mg/kg/day, ip administered for 4 consecutive days relative to control; type: functional
THP-1 = experiment: Cytotoxicity against human THP-1 cells; type: functional, cell-based
Leishmania infantum [16] = experiment: Antileishmanial activity against promastigote stage of Leishmania infantum; type: functional, organism-based

SMILES: COc1ccc2c(=O)cc(-c3ccccc3)oc2c1OC
selectivity ratio [5]: 5 | EC50 [6]: 21.6 µM

SMILES: C[C@@H]1O[C@@H](Oc2cc(O)c3c(=O)c(O)c(-c4ccc(O)c(O)c4)oc3c2)[C@H](O)[C@H](O)[C@H]1O
EC50 [1]: 20.1 µM

SMILES: C/C=C(\C)C(=O)O[C@@H]1CC(C(=O)O)=C2C(=O)C=C(C)[C@@H]2[C@H]2OC(=O)[C@H](C)[C@@H]21
EC50 [6]: 20.7 µM

SMILES: O=c1c(O)c(-c2cc(O)c(O)c(OS(=O)(=O)O)c2)oc2cc(O)cc(O)c12
EC50 [1]: 21.4 µM

SMILES: C=C1CC[C@H]2C(C)(C)CCC[C@]2(C)[C@H]1CC/C(C)=C/Cn1c[n+](C)c2ncnc(N)c21
EC50 [1]: 1.8 µM | EC50 (Leishmania infantum [9]): 3 µM | EC50 (Trypanosoma cruzi [7]): 9 µM

SMILES: C=C(C)C(=O)O[C@H]1CC2=C[C@@H](C/C(C)=C/[C@H]3OC(=O)C(=C)[C@H]13)OC2=O
EC50 (Leishmania major): < 0.28 µM | EC50 [6]: 0.07 µM

SMILES: CC/C=C(C)\C=C\CCC[C@]1(OC)C[C@H](C)[C@H](CC(=O)OC)OO1
selectivity ratio [5]: > 350 | EC50 [6]: 0.032 µM

SMILES: Cc1cc(O[C@@H]2O[C@@H](C)[C@H](O)[C@@H](O)[C@H]2O)c2c(c1)cc(O[C@@H]1O[C@@H](C)[C@H](O)[C@@H](O)C1O)c1c(=O)c3c(O)cccc3oc12 (some centres not stated)
EC50 [1]: 15.5 µM

SMILES: CO[C@@]1(CCCC2(O)C=C(C)C(C)O2)C[C@H](C)[C@H](CC(=O)O)OO1 (some centres not stated)
EC50 [1]: 0.049 µM | EC50 [6]: 0.17 µM

SMILES: CC/C=C(C)/C=C/CCC[C@]1(OC)C[C@H](C)[C@H](CC(=O)O)OO1
selectivity ratio [5]: 3.8 | EC50 [6]: 5.7 µM

SMILES: CC[C@H](C)[C@@H]1NC(=O)CNC(=O)[C@H](CCCNC(=N)N)NC(=O)[C@H](Cc2ccc(O)cc2)NC(=O)[C@@H]2CSSC[C@H](NC1=O)C(=O)N[C@@H](Cc1ccc(O)cc1)C(=O)N[C@@H](CCCNC(=N)N)C(=O)N[C@@H](CCCNC(=N)N)C(=O)N[C@H](C(=O)N[C@@H](CCCNC(=N)N)C(N)=O)CSSC[C@H](NC(=O)[C@H](Cc1c[nH]c3ccccc13)NC(=O)C(N)CCCCN)C(=O)N[C@@H](Cc1ccccc1)C(=O)N[C@@H](CCCNC(=N)N)C(=O)N[C@@H](C(C)C)C(=O)N2 (some centres not stated) (H-[ξK]WCFRVCYRGICYRRCR-NH2; disulfide 3-16, 7-12)
EC50 (Trypanosoma cruzi [12]): 9.3 µM | EC50 (Trypanosoma cruzi [13]): 47.9 µM

SMILES: O=c1cc(-c2ccccc2)oc2c(O)c(O)ccc12 [7,8-DIHYDROXYFLAVONE]
selectivity ratio [5]: 116 | EC50 [6]: 0.27 µM

SMILES: O=C(O)c1ccc2c(n1)C(=O)C1=C(C2=O)S(=O)(=O)CCN1 [ACIDIATHIAZONE A]
inhibition in vivo at 100 mg/kg/day (Plasmodium berghei [14]): 45% | selectivity ratio [5]: 50 | EC50 [6]: 3.1 µM | inhibition in vivo at 50 mg/kg/day (Plasmodium berghei [15]): 85%

The next lines start with results.

EC50 [1]: 13.1 µM
SMILES: O=c1c(O[C@@H]2O[C@H](CO)[C@@H](O)[C@H](O)[C@H]2O)c(-c2cc(O)c(O)c(O)c2)oc2cc(O)cc(O)c12

EC50 (Trypanosoma brucei): 0.0029 µM
SMILES: Cn1c2c3cc(Br)ccc3nc-2cc2cc(Br)ccc21
selectivity ratio [2]: 2080 | EC50 (Leishmania donovani [3]): 0.5 µM | selectivity ratio [4]: 18

EC50 (Trypanosoma cruzi [7]): 30.3 µM | EC50 [6]: 4.5 µM
SMILES: C/C=C(\C)C(=O)O[C@@H]1CC([C@@H](O)C2=CC3OC(=O)C4=C3[C@H]2[C@H]2OC(=O)[C@H](C)[C@@H]2[C@H](OC(=O)/C(C)=C/C)C4)=C2C(=O)C=C(C)[C@@H]2[C@H]2OC(=O)[C@H](C)[C@@H]21 (some centres not stated)
EC50 (Leishmania donovani [8]): 10.2 µM

EC50 [10]: 6.1 µM
SMILES: CC1=C\C=C\C[C@H](C)NC(=O)/C=C/C=C/C=C/[C@H](C)[C@@H](O)[C@H](O)[C@H](O)C[C@@H](O)\C=C\C=C\C(C)=C\1
selectivity ratio [11]: 11

EC50 [10]: 0.8 µM
SMILES: CC1=C\C=C\C[C@H](C)NC(=O)/C=C/C=C/C=C/[C@H](C)[C@@H](O)[C@H](O)[C@H](O)C[C@@H](O)/C=C\C=C\C(C)=C\1
selectivity ratio [11]: 83

EC50 [1]: 0.5 µM | EC50 (Leishmania infantum [9]): 2 µM | EC50 (Trypanosoma cruzi [7]): < 0.25 µM
SMILES: CO/N=c1\[n-]cnc2c1n(C/C=C(\C)CCC=C(C)C)c[n+]2C

EC50 (Leishmania infantum [16]): 0.04 µM
SMILES: C[C@@H]1[C@H](O)[C@@H](C)/C=C/C=C/C=C/C=C/C=C/C=C/C=C/[C@H](O[C@@H]2O[C@H](C)[C@@H](O)[C@H](N)[C@@H]2O)C[C@@H]2O[C@](O)(C[C@@H](O)C[C@@H](O)[C@H](O)CC[C@@H](O)C[C@@H](O)CC(=O)O[C@H]1C)C[C@H](O)[C@H]2C(=O)O [AMPHOTERICIN B]
EC50 (THP-1): 2 µM
